US20130143927A1, “COMPOUNDS THAT MODULATE INTRACELLULAR CALCIUM” (CalciMedica, Inc., priority 2011, published 2013)

Assays:
[1] = molecular target: T1, recombinant human STIM1 and Orai1 (HEK-293 cells) (Homo sapiens, UniProt Q96D31); assay: Fluorescence-based assay of store-operated calcium entry in Orai1/STIM1 stable cells; type: cell-based; settings: fluo-4, 50% inhibition of Peak-Basal signal
T1 construct: expressed in transfected cells; host or cells: HEK-293 cells stably expressing both proteins
Protocol: A. Fluorescence-based Assay of Store-Operated Calcium Entry in Orai1/STIM1 Stable Cells.
Cells stably expressing recombinant human STIM1 and Orai1 are generated by transfecting a human Orai1 expression plasmid (pcDNA3.1-Orai1-cmyc) into HEK-293 cells stably overexpressing human STIM1 (Roos et al. 2005 JCB 169(3): 435-445). Colonies of cells stably expressing both STIM1 and Orai1 proteins are selected and then subcloned by limiting dilution. Cells were cultured at 37° C./6% CO2 in complete medium with 10% FBS and appropriate selection markers.
The day prior to performing the assay Orai1/STIM1 stable cells are plated in 50 μL of complete medium at 90-95% confluence in a 384 well plate. Cells are grown at 37° C./6% CO2 overnight. On the day of the assay, 1.5 μM fluo-4-AM (Invitrogen) in complete medium is added to the cells, which are then incubated for 1 hour at RT. Cells are washed once in Ca^2+-free HBSS (Hank's buffered saline solution) and 35 μl of Ca^2+-free HBSS is added to each well. Test compounds are added to wells in a 10 μL Ca^2+-free HBSS solution, prepared at 4.5× the desired final concentration, and incubated for 30 minutes at RT. The initial baseline fluorescence signal is then measured with a FLIPR^384 (Molecular Devices) plate reader. Calcium entry is initiated by adding 5 μl of 10×CaCl2 (10 mM) in HBSS, and changes in cellular fluorescence are measured with the FLIPR^384 plate reader. In each well, the magnitude of the fluorescence signal as a result of calcium entry into the cell is determined by calculating the difference between the peak fluorescence signal measured after calcium addition and the initial baseline fluorescence signal (designated Peak-Basal). IC50 values are typically calculated as the concentration that inhibited 50% of the Peak-Basal signal.

RBL-2H3 cells = assay: Fluorescence-based assay of store-operated calcium entry in RBL-2H3 cells; type: cell-based; settings: Rattus norvegicus, store-operated calcium entry after thapsigargin, Fluo-4, 50% inhibition of Upslope
Protocol: B. Fluorescence-based Assay of Store-Operated Calcium Entry in RBL-2H3 Cells. Cells:
RBL-2H3 cells are obtained from ATCC and maintained in complete medium with 10% FBS at 37° C./6% CO2.
The day prior to performing the assay, RBL-2H3 cells are plated in 50 μL of complete medium in a 384 well plate. Cells are grown at 37° C./6% CO2 overnight and grow to 50-60% confluence by the next day. On the assay day, 1.5 μM Fluo-4-AM dye (Invitrogen) in complete medium is added and incubated for 1 hour at RT. Cells are washed twice in Ca^2+-free HBSS buffer and 35 μL Ca^2+-free HBSS buffer is added to each well. 10 μL of a test compound prepared in a Ca^2+-free HBSS solution at 4.5× of the desired concentration is added to a well and incubated for 5 minutes at RT. 10 μL of thapsigargin prepared in a Ca^2+-free HBSS solution at 5.5× of the desired concentration (5.5 uM) is added to each well and incubated for an additional 25 minutes. The initial baseline fluorescence signal is measured with a FLIPR^384 (Molecular Devices) plate reader. 5 μL of 12× calcium in HBSS (12 mM) is added and changes in cellular fluorescence are measured with the FLIPR^384 plate reader. In each well, the change in the fluorescent signal as a function of time due to calcium entry into the cell is determined by calculating the difference between the fluorescent signal measured 7 seconds after calcium addition and the initial baseline fluorescence signal at time zero (t=0). This parameter is designated Upslope. The IC50 value is calculated as the concentration at which 50% of the Upslope is inhibited.

T1 sequence (Q96D31 whole entry): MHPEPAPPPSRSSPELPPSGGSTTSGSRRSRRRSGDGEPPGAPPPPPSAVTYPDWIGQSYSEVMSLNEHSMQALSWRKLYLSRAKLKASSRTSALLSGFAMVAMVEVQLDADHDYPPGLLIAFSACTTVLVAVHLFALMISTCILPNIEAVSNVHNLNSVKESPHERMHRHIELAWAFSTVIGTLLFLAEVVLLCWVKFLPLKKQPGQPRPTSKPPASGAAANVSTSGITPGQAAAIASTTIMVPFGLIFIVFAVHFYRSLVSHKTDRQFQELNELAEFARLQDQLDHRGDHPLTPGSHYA

| SMILES | IC50 [1] [µM] | IC50 (RBL-2H3 cells) [µM] |
| --- | --- | --- |
| Cc1cc2c(cc1-c1cnc(NCc3c(F)cncc3F)s1)OC(F)(F)O2 [Compound 14, 5-(2,2-difluoro-6-methylbenzo[d][1,3]dioxol-5-yl)-N-((3,5-difluoropyridin-4-yl)methyl)thiazol-2-amine] | 0.6 to 1.2 | < 0.6 |
| Cn1nc(C(F)(F)F)cc1-c1ccc(NCc2ccccc2F)s1 [Compound 34, N-(2-fluorobenzyl)-5-(1-methyl-3-(trifluoromethyl)-1H-pyrazol-5-yl)thiophen-2-amine] | > 1.2 | 0.6 to 1.2 |
| Cc1cc2c(cc1-c1cnc(OCc3c(F)cccc3F)s1)OC(F)(F)O2 [Compound 31] | < 0.6 | < 0.6 |
| Cc1cc2c(cc1-c1ccc(NCc3c(F)cccc3F)s1)OC(F)(F)O2 [Compound 36, 5-(2,2-difluoro-6-methylbenzo[d][1,3]dioxol-5-yl)-N-(2,6-difluorobenzyl)thiophen-2-amine] | 0.6 to 1.2 | > 1.2 |
| Cn1nc(C(F)(F)F)cc1-c1ccc(NCc2c(F)cccc2F)s1 [Compound 35, N-(2,6-difluorobenzyl)-5-(1-methyl-3-(trifluoromethyl)-1H-pyrazol-5-yl)thiophen-2-amine] | 0.6 to 1.2 | < 0.6 |
| Cn1nc(C(F)(F)F)cc1-c1cnc(NCc2ccccc2F)s1 [Compound 4, N-(2-fluorobenzyl)-5-(1-methyl-3-(trifluoromethyl)-1H-pyrazol-5-yl)thiazol-2-amine] | < 0.6 | < 0.6 |
| Cn1nc(C(F)(F)F)cc1-c1cnc(OCc2c(F)cccc2F)s1 [Compound 32, 2-[(2,6-difluorophenyl)methoxy]-5-[1-methyl-3-(trifluoromethyl)pyrazol-5-yl]-1,3-thiazole] | < 0.6 | < 0.6 |
| Cn1nc(C(F)(F)F)cc1-c1cnc(NCc2c(F)cncc2F)s1 [Compound 11, N-((3,5-difluoropyridin-4-yl)methyl)-5-(1-methyl-3-(trifluoromethyl)-1H-pyrazol-5-yl)thiazol-2-amine] | > 1.2 | 0.6 to 1.2 |
| Cn1nc(C(F)(F)F)cc1-c1cnc(NCc2c(F)cccc2F)s1 [Compound 2, N-(2,6-difluorobenzyl)-5-(1-methyl-3-(trifluoromethyl)-1H-pyrazol-5-yl)thiazol-2-amine] | 0.6 to 1.2 | < 0.6 |
